The values below come from US20070093476A1, “Novel compounds and their use in medicine,as antidiabetic and hypolipidemic agents, process for their preparation and pharmaceutical compositions containing them” (priority 2003, published 2007).

One data set has as its target T1, hPPARα (Homo sapiens, UniProt Q07869).
T1 construct: expressed in transfected cells; host or cells: HEK-293
T1 sequence (Q07869 239-466 limits assumed): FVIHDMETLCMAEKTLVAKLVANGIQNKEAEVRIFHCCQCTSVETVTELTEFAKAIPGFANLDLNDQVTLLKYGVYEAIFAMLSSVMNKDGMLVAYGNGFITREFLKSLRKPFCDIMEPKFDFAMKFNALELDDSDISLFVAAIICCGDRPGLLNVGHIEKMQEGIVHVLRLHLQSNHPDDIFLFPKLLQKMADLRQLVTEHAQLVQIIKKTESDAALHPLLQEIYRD
The data set can be described thus: Determination of hPPARα activity (GAL4-LBD luciferase reporter transactivation in HEK-293 cells). It counts as cell-based. Particulars: 50 μM compound. The protocol: a) Determination of hPPARα Activity Ligand binding domain of hPPARα was fused to […] of Yeast transcription factor GAL4 in eucaryotic expression vector. Using superfect (Qiagen, Germany) as transfecting reagent HEK-293 cells are transfected with this plasmid and a reporter plasmid harboring the luciferase gene driven by a GAL4 specific promoter. Compound can be added at different concentrations after 42 hrs of transfection and incubated overnight. Luciferase activity as a function of compound binding/activation capacity of PPARα will be measured using Packard Luclite kit (Packard, USA) in Top Count (Ivan Sadowski, Brendan Bell, Peter Broag and Melvyn Hollis. Gene. 1992. 118 : 137-141; Superfect Transfection Reagent Handbook. February 1997. Qiagen, Germany).

The target in the next data set is T2, hPPARγ1 (Homo sapiens, UniProt P37231).
T2 construct: expressed in transfected cells; host or cells: HEK-293
T2 sequence (P37231 238-503 limits assumed): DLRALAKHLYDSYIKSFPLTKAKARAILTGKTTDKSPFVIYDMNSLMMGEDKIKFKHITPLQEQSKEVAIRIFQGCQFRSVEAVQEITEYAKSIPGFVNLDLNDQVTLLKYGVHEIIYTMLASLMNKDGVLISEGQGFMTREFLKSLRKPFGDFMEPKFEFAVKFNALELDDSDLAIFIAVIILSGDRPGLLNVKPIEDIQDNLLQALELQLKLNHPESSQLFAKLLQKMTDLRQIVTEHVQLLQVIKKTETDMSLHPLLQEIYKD
The data set can be described thus: Determination of hPPARγ activity (GAL4-LBD luciferase reporter transactivation in HEK-293 cells). It counts as cell-based. To be noted: 1 μM compound. The protocol:
b) Determination of hPPARγ Activity
Ligand binding domain of hPPARγ1 is fused to DNA binding domain of Yeast transcription factor GAL4 in eucaryotic expression vector. Using lipofectamine (Gibco BRL, USA) as transfecting reagent HEK-293 cells are transfected with this plasmid and a reporter plasmid harboring the luciferase gene driven by a GAL4 specific promoter. Compound can be added at 1 μM concentration after 48 hrs of transfection and incubated overnight Luciferase activity as a function of drug binding/activation capacity of PPARγ1 will be measured using Packard Luclite kit (Packard, USA) in Packard Top Count (Ivan Sadowski, Brendan Bell, Peter Broag and Melvyn Hollis. Gene. 1992. 118 : 137-141; Guide to Eukaryotic Transfections with Cationic Lipid Reagents. Life Technologies, GIBCO BRL, USA).

A further data set relates to Swiss albino mice. Put plainly: Plasma triglyceride lowering activity in Swiss albino mice. Particulars: for inhibition in vivo at 3 mg/kg/day: Mus musculus, 144 h, read-out: % of Reduction in Triglyceride. It counts as in vivo. The protocol:
b) Plasma Triglyceride and Total Cholesterol Lowering Activity in Swiss Albino Mice and Guinea Pigs
Male Swiss albino mice (SAM) and male Guinea pigs are obtained from NIN and housed in DRF animal house. All these animals are maintained under 12 hour light and dark cycle at 25±1° C. Animals are given standard laboratory chow (NIN, Hyderabad, India) and water, ad libitum. SAM of 20-25 g body weight range and Guinea pigs of 500-700 g body weight range are used (Oliver, P., Plancke, M. O., Marzin, D., Clavey, V., Sauzieres, J and Fruchart, J. C. Effects of fenofibrate, gemfibrozil and nicotinic acid on plasma lipoprotein levels in normal and hyperlipidemic mice. Atherosclerosis. 1988. 70 : 107-114).
The test compounds can be administered orally to Swiss albino mice at 0.3 to 30 mg/kg/day dose for 6 days. Control mice are treated with vehicle (0.25% Carboxymethylcellulose; dose 10 ml/kg). The test compounds are administered orally to Guinea pigs at 0.3 to 30 mg/kg/day dose for 6 days. Control animals are treated with vehicle (0.25% Carboxymethylcellulose; dose 5 ml/kg).
The blood samples can be collected in fed state 1 hour after drug administration on 0 and 6 day of treatment. The blood can be collected from the retro-orbital sinus through heparinised capillary in EDTA containing tubes. After centrifugation, plasma sample was separated for triglyceride and total cholesterol (Wieland, O. Methods of Enzymatic analysis. Bergermeyer, H. O., Ed., 1963. 211-214; Trinder, P. Ann. Clin. Biochem. 1969. 6 : 24-27). Measurement of plasma triglyceride, total cholesterol and HDL are done using commercial kits (Dr. Reddy's Diagnostic Division, Hyderabad, India).

The mark [1] stands for this setting: Swiss albino mice, 3 mg/kg/d oral, 6 days.

Where a name gives a salt, the structure may show the parent alone. Read-outs that look alike come from different tables or passages of the source.

As for `CCOC(=O)[C@H](Cc1ccc(NCc2ccc3cc(OS(C)(=O)=O)ccc3c2)cc1)OC` [Example 1, (S)-Ethyl 2-methoxy-3-[4-(6-methanesulfonyloxynapth-2-ylmethylamino)phenyl]propanoate], the melting point fell in the range of 94 to 96 °C. The “PPAR fold activation, PPAR α at 50 μM concentration” value (from here on “PPAR fold activation, PPAR α”) on hPPARα is 2.7 fold. The “PPAR fold activation, PPAR γ at 1 μM concentration” value (shortened to “PPAR fold activation, PPAR γ”) at hPPARγ1 is recorded as 9.2 fold.
`CCOC(Cc1ccc(NCCCn2ccc3ccccc32)cc1)C(=O)O` (centres unmarked) [Example 47, 2-Ethoxy-3-[4-{3-(indol-1-yl)propylamino}phenyl]propanoic acid Arginine salt]: in the data set with Swiss albino mice (po), the inhibition in vivo at 3 mg/kg/day is 60%. The “PPAR fold activation, PPAR α” value on hPPARα is on record as 4.8 fold. The “PPAR fold activation, PPAR γ” value at hPPARγ1 is 6.7 fold.
`CC(C)(Oc1cccc(CCCOc2ccc(OS(C)(=O)=O)cc2)c1)C(=O)O` [Example 42, 2-Methyl-2-[3-{3-(4-methanesulfonyloxyphenoxy)propyl}phenoxy]propanoic acid] returned a melting point of 93 to 95 °C.
In turn, `CCOC(Cc1ccc(NCCCC2CCc3cc(OS(C)(=O)=O)ccc3C2)cc1)C(=O)O` (centres unmarked) (as salt: salt) [Example 54, 2-Ethoxy-3-[4-{3-(6-methanesulfonyloxy-1,2,3,4-tetrahydronapth-2-yl)propylamino}phenyl]propanoic acid Arginine salt] yielded a melting point of 115 to 117 °C.
Still for that read-out and setting: to `CCOC(CCCc1ccc(NCc2ccc3cc(OS(C)(=O)=O)ccc3c2)cc1)C(=O)O` (centres unmarked) (as salt: salt) [Example 46, 2-Ethoxy-5-[4-{6-methanesulfonyloxynapth-2-ylmethylamino}phenyl]pentatonic acid Arginine salt] belongs 118 to 120 °C.
For the compound `CCOC(Cc1ccc(NCCCN2CCc3ccccc32)cc1)C(=O)O` (centres unmarked) [Example 52, 2-Ethoxy-3-[4-{3-2,3-dihydroindol-1-yl)propylamino}phenyl]propanoic acid Arginine salt], the “PPAR fold activation, PPAR α” value at hPPARα is on record as 4.0 fold. Further, the “PPAR fold activation, PPAR γ” value at hPPARγ1 was 6 fold.
Compound `CCOC(Cc1ccc(NCCCn2ccc3ccccc32)cc1)C(=O)O` (centres unmarked) (as salt: salt) [Example 47, 2-Ethoxy-3-[4-{3-(indol-1-yl)propylamino}phenyl]propanoic acid Arginine salt] returned a melting point of 130 °C.
Same read-out and setting: then `CC(C)(Oc1ccc(CCCOc2ccc(-c3ccccc3)cc2)cc1)C(=O)O` [Example 63, 2-{4-[3-(Biphenyl-4-yloxy)-propyl]-phenoxy}-2-methyl-propanoic acid], with 130 to 133 °C; and `CC(C)(C)OC(=O)Nc1ccc(OCCCc2ccc(OC(C)(C)C(=O)O)cc2)cc1` [Example 96, 2-Methyl-2-[4-{3-(4-(tert-butyloxycarbonylamino)phenoxy)propyl}phenoxy]propanoic acid], with 132 to 134 °C; and `CCOC(Cc1ccc(NCC2CCc3cc(OS(C)(=O)=O)ccc3C2)cc1)C(=O)O` (centres unmarked) (as salt: salt) [Example 53, 2-Ethoxy-3-[4-{(6-methanesulfonyloxy-1,2,3,4-tetrahydronapth-2-yl)methylamino}phenyl]propanoic acid Arginine salt], with 96 to 98 °C.
The same measure, in the same setting: to `CO[C@@H](Cc1ccc(NCCCn2ccc3ccccc32)cc1)C(=O)O` (as salt: salt) [Example 48, (S)-2-Methoxy-3-[4-{3-(indol-1-yl)propylamino}phenyl]propanoic acid Arginine salt] belongs 105 °C.
“2-Methyl-2-[3-{3-(4-methanesulfonyloxyphenoxy)propyloxy}phenoxy]propanoic acid Arginine salt [Example 66]”: the “% of Reduction in Triglyceride” value in the data set with Swiss albino mice (setting [1]) is listed as 71%.
`CCOC(Cc1ccc(NCCCN2CCc3ccccc32)cc1)C(=O)O` (centres unmarked) (as salt: salt) [Example 52, 2-Ethoxy-3-[4-{3-2,3-dihydroindol-1-yl)propylamino}phenyl]propanoic acid Arginine salt] gave a melting point of 130 to 132 °C.
The compound `CCOC(Cc1ccc(NCCCN2CCCc3ccccc32)cc1)C(=O)O` (centres unmarked) (as salt: salt) [Example 55, 2-Ethoxy-3-[4-{3-1,2,3,4-tetrahydroquinolyn-1-yl)propylamino}phenyl]propanoic acid Arginine salt] had a melting point of 134 to 136 °C.
For `CC(C)(Oc1ccc(NCc2ccc3cc(OS(C)(=O)=O)ccc3c2)cc1)C(=O)O` [Example 26, 2-Methyl-2-[4-(6-methanesulfonyloxynapth-2-ylmethylamino}phenoxy]propanoic acid], the melting point is 182 to 184 °C. Moreover, the inhibition in vivo at 3 mg/kg/day in the data set on Swiss albino mice (setting [1]) stood at 10%.
Turning to `CCOC(Cc1ccc(NCCCC2CCc3cc(OS(C)(=O)=O)ccc3C2)cc1)C(=O)O` (centres unmarked) [Example 54, 2-Ethoxy-3-[4-{3-(6-methanesulfonyloxy-1,2,3,4-tetrahydronapth-2-yl)propylamino}phenyl]propanoic acid Arginine salt], in the data set on Swiss albino mice (po), the inhibition in vivo at 3 mg/kg/day came out at 43%.
`CC(C)(Oc1ccc(OCc2ccc3cc(OS(C)(=O)=O)ccc3c2)cc1)C(=O)O` [Example 37, 2-Methyl-2-[4-{6-methanesulfonyloxynapth-2-ylmethoxy}phenoxy]propanoic acid]: the melting point was 147 to 149 °C. In addition, in the data set with Swiss albino mice (setting [1]), the inhibition in vivo at 3 mg/kg/day was determined as 30%.
The compound `CCOC(=O)C(C)(C)Oc1ccc(NCc2ccc3cc(OS(C)(=O)=O)ccc3c2)cc1` [Example 4, Ethyl 2-methyl-2-[4-{6-methanesulfonyloxynapth-2-ylmethylamino}phenoxy]propanoate] gave a melting point of 116 to 118 °C.
For `CCO[C@@H](Cc1ccc(NCCCn2ccc3cc(OS(C)(=O)=O)ccc32)cc1)C(=O)O` (as salt: salt) [Example 49, (S)-2-Ethoxy-3-[4-{3-(5-methanesulfonyloxyindol-1-yl)propylamino}phenyl]propanoic acid Arginine salt], the melting point lay within 102 to 104 °C.
Consider `CO[C@@H](Cc1ccc(NCCCn2ccc3cc(OS(C)(=O)=O)ccc32)cc1)C(=O)O` (as salt: salt) [Example 50, (S)-2-Methoxy-3-[4-{3-(5-methanesulfonyloxyindol-1-yl)propylamino}phenyl]propanoic acid Arginine salt], for which the melting point lay in the range of 102 to 104 °C.
For “2-Methyl-2-[3-{3-(3-methanesulfonyloxyphenoxy)propyloxy}phenoxy]propanoic acid Arginine salt [Example 61]”, the “% of Reduction in Triglyceride” value in the data set on Swiss albino mice (setting [1]) stood at 51%.
With `CC(C)(Oc1ccc(CCCOc2ccc(NS(C)(=O)=O)cc2)cc1)C(=O)O` [Example 97, 2-Methyl-2-[4-{3-(4-(methanesulfonylamino)phenoxy)propyl}phenoxy]propanoic acid], the melting point lay in the range of 122 to 124 °C.
